Molecular target: T1, HDAC6 (Homo sapiens, UniProt Q9UBN7)
T1 sequence (Q9UBN7 1-1215): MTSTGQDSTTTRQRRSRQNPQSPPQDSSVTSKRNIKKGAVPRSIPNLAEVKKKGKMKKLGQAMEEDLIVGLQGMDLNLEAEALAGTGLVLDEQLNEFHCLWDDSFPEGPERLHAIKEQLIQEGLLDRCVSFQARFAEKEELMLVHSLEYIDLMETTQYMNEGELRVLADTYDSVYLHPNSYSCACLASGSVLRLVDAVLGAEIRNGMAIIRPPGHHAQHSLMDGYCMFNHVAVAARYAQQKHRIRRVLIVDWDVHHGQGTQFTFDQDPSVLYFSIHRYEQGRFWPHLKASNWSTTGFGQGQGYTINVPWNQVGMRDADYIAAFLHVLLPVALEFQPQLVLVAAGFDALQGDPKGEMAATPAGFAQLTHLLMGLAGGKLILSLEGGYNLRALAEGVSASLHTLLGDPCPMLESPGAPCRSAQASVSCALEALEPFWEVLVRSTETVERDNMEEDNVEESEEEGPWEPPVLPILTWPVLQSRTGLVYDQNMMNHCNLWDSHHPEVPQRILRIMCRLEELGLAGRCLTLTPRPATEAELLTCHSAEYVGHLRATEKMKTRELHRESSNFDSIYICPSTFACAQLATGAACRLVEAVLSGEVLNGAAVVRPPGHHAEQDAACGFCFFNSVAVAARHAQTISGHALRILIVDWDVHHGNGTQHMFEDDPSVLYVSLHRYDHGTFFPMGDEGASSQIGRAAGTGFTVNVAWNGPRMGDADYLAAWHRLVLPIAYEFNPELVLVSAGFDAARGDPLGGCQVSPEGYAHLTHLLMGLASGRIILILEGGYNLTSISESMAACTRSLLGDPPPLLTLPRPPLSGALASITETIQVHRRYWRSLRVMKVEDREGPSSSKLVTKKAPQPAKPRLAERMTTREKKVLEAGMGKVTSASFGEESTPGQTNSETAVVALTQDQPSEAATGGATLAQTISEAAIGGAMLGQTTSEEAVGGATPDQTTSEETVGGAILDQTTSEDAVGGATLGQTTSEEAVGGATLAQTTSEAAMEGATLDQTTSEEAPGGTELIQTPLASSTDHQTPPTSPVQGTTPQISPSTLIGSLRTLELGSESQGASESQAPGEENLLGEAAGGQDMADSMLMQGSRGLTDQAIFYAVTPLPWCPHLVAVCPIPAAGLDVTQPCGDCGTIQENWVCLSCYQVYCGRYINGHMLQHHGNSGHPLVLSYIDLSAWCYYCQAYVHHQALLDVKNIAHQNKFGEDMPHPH
Assay: Simple Western immunoassay, HDAC6 levels in U-87MG cell lysates
Format: cell-based
Design: endogenous in cells; host or cells: MM.1S
Details: 10 μM, 24 h
Description: Figure S5. Analysis of HDAC1 and 6 degradation in U-87MG cells. Simple western immunoassay analysis of U-87MG cell lysates. The cells were treated with the indicated compound (10 µM) or vehicle (DMSO) for 24 h. Top: Quantification of HDAC levels, presented as mean ± standard deviation of n = 2 biological replicates; Significance compared to vehicle: ns = p≥0.05 and *** = p≤0.001. Bottom:
Representative images of n = 2 biological replicates.
(1 picture or pasted object on this page, not shown here)
2. Biological Experiments
No unexpected or unusually high safety hazards were encountered.
The human multiple myeloma cell line MM.1S (CRL-2974) was obtained from American Type Culture Collection (ATCC, Manassas, VA, USA). […]
Louis, MO, USA) according to manufacturer´s instructions. Protein content was determined by Pierce™ BCA Protein Assay Kit (Catalog# 23225, Thermo Fisher Scientific Inc.) according to manufacturer´s guidelines. […]
Fluorescence Separation 8x25 Capillary Cartridges (Catalog# SM-FL004-1, Protein Simple, Bio-Techne, Minneapolis, MN, USA) were used for separation and the Anti-Mouse Detection Module (Catalog# DM-002, Protein Simple) was used for detection with addition of 20x Anti-Rabbit HRP […]
Conjugate (Catalog# 043-426, Protein Simple) according to manufacturer´s instructions. […] Evaluation and quantification was performed with the compass software (6.2.0, Protein Simple). […]

O=C(CCCCCCNC(=O)c1ccc(NC(=O)CCCCCCCCCCCN(C(=O)CCl)C(C(=O)NCc2ccccc2)c2ccc(Cl)c(Cl)c2)cc1)NO (stereo not shown) [Compound 1j]
HDAC6 degradation in U-87MG cells: significant HDAC1 and 6 degradation

Source: paper PMC12091851, “Replacing a Cereblon Ligand by a DDB1 and CUL4 Associated Factor 11 (DCAF11) Recruiter Converts a Selective Histone Deacetylase 6 PROTAC into a Pan‐Degrader” (Chemmedchem, 2025)
